Assay results published in ChEMBL document CHEMBL3507680, “University of Dundee, Gates Library screen for HepG2 cell viability”.

Assay: Human HepG2 cell viability assay in 384 well format
Assay type: toxicity, cell-based
Parameters: dose 125 nL, time 70.5 hour; concentration not given beside the values
Settings: HepG2 cells, read-out: Inhibition

SMILES | cytotoxicity at 70.5 h
CC(c1ccc(F)cc1)N1CCN(Cc2nccn2C)CC1 (configuration not stated) | 4.48%
COc1cc(CNc2cc(N3CCCC3CO)ncn2)ccn1 (configuration not stated) | 24.7%
COc1nc(C)ccc1CNc1cc(N2CCCC2CO)ncn1 (configuration not stated) | 7.33%
OCC1CCCN1c1cc(NCc2cccc3cccnc23)ncn1 (configuration not stated) | 3.27%
CC(C)c1nc(CN(C)C2CCN(CCS(C)(=O)=O)C2)no1 (configuration not stated) | -4.02%
CCc1nc(CN(C)C2CCN(CC(=O)N(C)C)C2)no1 (configuration not stated) | -5.61%
Cc1ccc(NC2CCN(C(=O)c3cccnc3N(C)C)CC2)nn1 | 0.412%
O=C(NCc1ccco1)N(CCCO)C1CCCc2ccccc21 (configuration not stated) | -5.76%
CCc1[nH]ncc1C(=O)N1CCCC(n2nc(C)cc2C)C1 (configuration not stated) | -10.3%
CN(CCC(=O)N1CCc2sccc2C1)Cc1cnn(C)c1 | -2.72%
CC(C)c1ncc2c(n1)CN(CCCc1nc3ccccc3o1)CC2 | -3.98%
CCc1ccc(C(N)c2cccc(S(C)(=O)=O)c2)cc1 (configuration not stated) | -4.78%
CCc1nc(C2CCCN2Cc2cnc(C)cn2)no1 (configuration not stated) | -3.7%
Cc1cnc(CN2CCCC2c2noc(C(C)C)n2)cn1 (configuration not stated) | 1.04%
CN(CCC(=O)N1CCc2sccc2C1)Cc1cc(Br)cs1 | -4.84%
Cc1noc(C)c1CC(=O)N1CCc2sccc2C1 | -4.18%
COc1ccc(C)cc1C(C)NC(=O)CCn1cncn1 (configuration not stated) | -5.61%
O=C(c1cccc2ncccc12)N1CCC(Nc2cccnn2)CC1 | -3.36%
CS(=O)(=O)c1cccc(C(N)c2ccccc2)c1 (configuration not stated) | -1.27%
Cc1cnc(CNC(=O)N(CCCO)C2CCc3ccccc32)s1 (configuration not stated) | 0.605%
CN(Cc1noc(C2CC2)n1)C1CCN(CCc2cnn(C)c2)C1 (configuration not stated) | 14.4%
CC(C)c1cnc(CN(C)C2CCN(CCCc3cnn(C)c3)C2)o1 (configuration not stated) | 20.9%
c1ccc(-c2nc(CN3CCn4c(nnc4C4CC4)C3)co2)cc1 | -9.3%
CN(CC(=O)NC1(C)CCS(=O)(=O)C1)Cc1ccc(F)c(F)c1 (configuration not stated) | 3.42%

SMILES | cytotoxicity at 70.5 h
COc1cccc(CN(C)CC(=O)NC2(C)CCS(=O)(=O)C2)c1 (configuration not stated) | -15.4%
Cc1cc(C(=O)N2CCN(Cc3ccsc3)CC2)c(C)n1C1CC1 | -14.9%
c1ccc2c(OCCN3CCn4c(nnc4C4CC4)C3)cccc2c1 | 2.06%
c1ccc(Cc2nnc(CN3CCn4c(nnc4C4CC4)C3)o2)cc1 | -13.3%
O=C(NCCN1C(=O)c2ccccc2C1=O)c1scnc1Cl | -7.67%
NC(=O)CN1CCCN(C(=O)Cc2ccc(Br)cc2)CC1 | -13.7%
O=C(NCCNC(=O)c1scnc1Cl)c1ccoc1 | 5.67%
COc1ccc(CN2CCN(C(=O)c3ccc(C)n3C)CC2)cc1 | -11.9%
Cc1csc(N2CCCN(C(=O)c3occc3C)CC2)n1 | 1.54%
NC(=O)CN1CCCN(C(=O)Cc2ccc(F)cc2)CC1 | -13.3%
NC(=O)CN1CCCN(C(=O)Cc2cccc(C(F)(F)F)c2)CC1 | 4.42%
Cc1ccc(C(=O)N2CCN(Cc3cccs3)CC2)n1C | -14.9%
Cc1ccoc1-c1nnc(CN2CCn3c(C)nnc3C2)o1 | -0.634%
Cc1ncc2c(n1)CN(CC(=O)Nc1ccc(Cl)cn1)CC2 | -13.8%
CCc1ncc2c(n1)CN(CC(=O)Nc1cc(C)no1)CC2 | -0.924%
Cc1ccc(NC2CCN(C(=O)c3cc(C)sc3C)CC2)nn1 | -11.8%
Cc1ccoc1-c1nnc(CN2CCn3c(nnc3C(C)C)C2)o1 | -2.59%
Cc1ncc(CN2CCCC(c3cc(C(F)(F)F)[nH]n3)C2)s1 (configuration not stated) | -1.49%
CCc1ncc2c(n1)CN(CC(=O)Nc1cc(C)on1)CC2 | 12%
Cc1csc(N2CCCN(C(=O)c3csc(C)n3)CC2)n1 | -10.6%
Cc1nn(C)c(N(C)C)c1CNCc1ccc(OCCN(C)C)cc1 | 22.3%
COc1c(CNCc2ccc(OCC(N)=O)cc2)c(C)nn1C | 7.56%
OC(COCc1cccs1)CN1CCc2c(ncn2C2CC2)C1 (configuration not stated) | -2.16%
CCOCCN1CCN(Cc2cccc(C(=O)N(C)C)c2)CC1C (configuration not stated) | -9.62%

SMILES | cytotoxicity at 70.5 h
CCc1noc(C(C)N2CCN(CC)CC2)n1 (configuration not stated) | -8.24%
CCc1noc(C(C)N2CCC(O)CC2)n1 (configuration not stated) | -10.2%
CN(C)C1CCCN(C(=O)NCc2ccccc2-n2cccn2)C1 (configuration not stated) | 10.5%
Cc1c(C(=O)N2CCCC(n3cccn3)C2)nnn1-c1ccccc1 (configuration not stated) | -2.31%
Cc1cnn(CC2CCCN2C(=O)c2ccc(C(N)=O)cn2)c1 (configuration not stated) | -10.6%
O=C1CCC(C(=O)NCc2nn(-c3ccccc3)c3c2CCC3)CN1 (configuration not stated) | 4.23%
CCn1c(C)cc(C(=O)N2CCCC(n3nc(C)nc3C)C2)c1C (configuration not stated) | -7.33%
CCn1nc2c(cc1=O)CN(Cc1nc(-c3ccccn3)no1)CC2 | -1.12%
CCn1nc2c(cc1=O)CN(Cc1nc(-c3ccsc3)no1)CC2 | -22.4%
CC(C)c1cc(CNC(=O)N2CCC(Cc3cnn(C)c3)C2)on1 (configuration not stated) | -11.4%
O=C(NCc1nn(-c2ccccc2)c2c1CCC2)N1CCSCC1 | 32.7%
CCn1ccnc1CN1CCN(CC(O)c2ccccc2)CC1 (configuration not stated) | -15.4%
CC(C)c1ncncc1C(=O)NCCN1CCCS1(=O)=O | -12.7%
Cc1cccc(C(=O)N2CCCN(Cc3cnn(C)c3)CC2)n1 | -19.9%
COc1cccc(COCC(=O)N2CCCC(n3ccnc3C)C2)c1 (configuration not stated) | -15.7%
CCn1ccnc1CN1CCCN(C(=O)c2cccc(C#N)c2)CC1 | -15.8%
c1ncn(CC2CCCN2Cc2cn3ccsc3n2)n1 (configuration not stated) | -16.9%
COCCc1noc(CN2CCCCC2Cn2cc(C)cn2)n1 (configuration not stated) | -11.7%
CCc1nc(CNCC2CCCN2c2cc(NC)ncn2)cs1 (configuration not stated) | -4.75%
CC(C)c1nnc2n1CCN(Cc1csc(CC(=O)N(C)C)n1)C2 | 49.9%
CCc1noc(C(C)N2CCN(Cc3ncc(C(C)(C)C)o3)CC2)n1 (configuration not stated) | 11.8%
Cc1cc(C(C)C(=O)N2CCCN(Cc3cscn3)CC2)c(C)o1 (configuration not stated) | 18.7%
COC(C(=O)N1CCCN(Cc2cscn2)CC1)c1ccccc1 (configuration not stated) | 12.8%
CCc1noc(C(C)N2CCN(Cc3noc(C)n3)CC2)n1 (configuration not stated) | 26.6%

SMILES | cytotoxicity at 70.5 h
Cc1cc(C)n(CC2CN(Cc3nnsc3Cl)CCO2)n1 (configuration not stated) | -13%
Cc1ccc(NC2CCN(C(=O)Cn3nc(C)cc3C)CC2)nn1 | -6.3%
COc1ccc(-c2noc(CN3CCc4cncnc4C3)n2)cc1 | -8.79%
O=C(c1cccnc1N1CCOCC1)N1CCCC(n2ccnc2)C1 (configuration not stated) | -6.03%
Cc1oc(C)c(C(=O)NCc2ccccn2)c1C | -6.3%
CCC1CN(CC(=O)Nc2sccc2C#N)CCO1 (configuration not stated) | -8.24%
N#Cc1cn(C2CC2)c(=O)n(CC(O)c2ccccc2F)c1=O (configuration not stated) | -17%
COc1ccc(C(O)CNC(=O)Nc2cc(C)nn2C)cc1 (configuration not stated) | 25.3%
Cc1oc(C)c(C(=O)NCc2ccccc2S(=O)(=O)N(C)C)c1C | -2.12%
Cc1cc(C)n(CC(=O)N2CCC(NS(=O)(=O)c3ccccc3)CC2)n1 | -5.45%
Cc1cc(C)c(CNC(=O)C2CCCN(c3cnccn3)C2)c(=O)[nH]1 (configuration not stated) | -14.3%
COc1cc(CNCCc2cnn(C)c2)cc2c1OCCO2 | -12.1%
Cc1noc2ncc(C(=O)NCC3CCN(C(C)C)C3)cc12 (configuration not stated) | -4.09%
Cc1nc2cc(=O)[nH]n2c(C)c1CC(=O)Nc1ccc2ccccc2n1 | -6.2%
Cc1cnn(CC2CN(CC(=O)Nc3sccc3C#N)CCO2)c1 (configuration not stated) | -0.129%
Cn1cnnc1CNC(=O)Nc1cc(C(F)(F)F)c[nH]c1=O | -7.22%
Cc1ccccc1CNC(=O)Cc1c(C)nc2cc(=O)[nH]n2c1C | -2.94%
Cc1nc(C)n(CC2CCCN(CC(=O)Nc3nncs3)C2)n1 (configuration not stated) | -6.97%
Cc1ccc(NC2CCN(C(=O)c3c(C)noc3C)CC2)nn1 | -2.81%
O=C(COc1ccc(C(F)(F)F)cc1)NS(=O)(=O)c1cccnc1 | -3.77%
Cc1nnc2n1CCN(C(=O)c1cc(Cl)c[nH]1)C2 | -6.67%
CCCC1CCCN(Cc2csc(-c3cnn(C)c3)n2)CC1 (configuration not stated) | 14.1%
Cn1cc(-c2nc(CN3CCN(CCO)CC3)cs2)cn1 | 12.2%
CCC1CN(c2nnc(C)c(C)c2C#N)CCO1 (configuration not stated) | 8.71%

SMILES | cytotoxicity at 70.5 h
O=C(Cn1nc(-c2ccc(F)cc2)oc1=O)NCc1ccc(F)cc1 | 30.8%
N#Cc1ccc(C(=O)NCCCNc2ccc(C(F)(F)F)cn2)cc1 | 0.522%
CCn1cc(NC(=O)NCC(c2cccs2)N(C)C)cn1 (configuration not stated) | -4.7%
COCCOc1ncccc1C(=O)Nc1ccc(-n2cncn2)c(F)c1 | -6.17%
CCCNC(=O)CCC(=O)Nc1ccc(-n2cncn2)c(F)c1 | 36%
O=C(Cn1cnc(NC(=O)CC2CCCC2)n1)NCc1ccccc1 | 1.33%
COCCNC(=O)Nc1ccc(-n2cncn2)c(F)c1 | 40.1%
CCNC(=O)Nc1ccc2c(ccn2CC(=O)N(CC)CC)c1 | -0.739%
O=C(CCCc1nc2ccccc2[nH]1)N1CCCC(n2cccn2)C1 (configuration not stated) | -1.12%
CN1CCCC1CNC(=O)CCCOCc1ccccc1 (configuration not stated) | -3.14%
Cc1cc(CN2CCN(C(=O)NC(C)Cn3ccnc3)CC2)no1 (configuration not stated) | -3.28%
Cc1nnc(N2CCOC(Cn3cccn3)C2)c(C#N)c1C (configuration not stated) | -8.57%
CC(C)c1nnc2n1CCN(C(=O)CN1CCc3sccc3C1)C2 | -4.56%
c1cnnc(N2CCCC2CNCc2cc[nH]n2)c1 (configuration not stated) | 11%
COCC(c1cccc(C(F)(F)F)c1)N(C)C(=O)c1cc(C)n[nH]1 (configuration not stated) | 18.4%
C=C1c2ccccc2C(=O)N1CCC(=O)N1CCNC(=O)C1 | 3.89%
CCOCC(O)CN1CCN(C(=O)Cc2ccc(C)nc2)CC1 (configuration not stated) | -0.471%
COCC(c1cccc(C(F)(F)F)c1)N(C)C(=O)c1ccncc1 (configuration not stated) | 30.8%
Cc1noc(CCCC(=O)NC(C)c2cccnc2)n1 (configuration not stated) | 0.606%
Cc1ccc(C(N)c2cccc(S(C)(=O)=O)c2)c(C)c1 (configuration not stated) | -7.42%
COc1cc(CNCCc2nc(C)cs2)cc2c1OCCO2 | -0.752%
